From patent US20150259319A1, “AROMATIC ALKENOIC ACID DERIVATIVES” (Symrise AG, priority 2014, published 2015)

System: human neuroblastoma cells (SH-SY5Y)
Test: Serotonin release of SH-SY5Y cells after stimulation (Serotonin-ELISA, standardized to DNA content)
Details: for Serotonin release [% control]: 3 minutes stimulation in Krebs-Ringer HEPES buffer
From the text: After serotonin release, the cells are harvested with trypsin and, after a vitality test by trypan blue staining, sown in a defined number of cells in 35 mm cell culture dishes.
The cells are lysed with a sodium laurylsarcosinate-containing buffer and the DNA content is ascertained with the aid of a NanoQuant plate (Tecan, Ménnendorf, Switzerland) for standardization of the serotonin release.

Row | Structure (SMILES) | Serotonin release [% control] (0.01 μM compound) | Serotonin release [% control] (0.1 μM compound) | rise in serotonin release compared to the control (1 μM compound) | Serotonin release [% control] (1 μM compound) | Serotonin release [% control] (10 μM compound)
1 | O=C(/C=C/C=C/CCc1ccc2c(c1)OCO2)N1CCCCC1 [Compound 3, 2E,4E-7-(1,3-Benzodioxol-5-yl)-1-(1-piperidyl)hepta-2,4-dien-1-one] | 161 % control | 141 % control | 280% | 283 % control | 226 % control
2 | COC(=O)/C=C/C=C/CCc1ccc2c(c1)OCO2 [Compound 4, 2E,4E-Methyl 7-(1,3-benzodioxol-5-yl)hepta-2,4-dienoate] | 129 % control | 123 % control | 240% | 239 % control | 171 % control
